Results: patent US20160106110A1, “COMPOSITIONS AND METHODS FOR ENHANCING GERMINATION” (CORNELL UNIVERSITY, priority 2013, published 2016)

Legend:
[1] = system: TrigoCor spores; test: Terbium chloride (DPA release) spore germination assay at 37° C., 10 mM germinant (Example 1); type: cell-based, Bacillus subtilis var. amyloliquefaciens; settings: for Percent germination of TrigoCor spores: 10 mM germinant, mean ± standard deviation; for percent germination of spores as compared to control (in words): summary of Table 1, 10 mM
Protocol: Bacillus starter cultures were grown in nutrient broth plus yeast extract (Crane et al. 2013), then were transferred 1:1000 to a modified Schaeffer's sporulation medium (Nicholson and Setlow 1990) containing per liter 2.012 g KCl, 0.492 g MgSO4. 7 H20, no NaOH, and 0.0197 g MnCl2.4H20, and grown for 72 h. All cultures were grown in 50 mL aliquots in beveled flasks at 37° C. with 225 RPM shaking. Liquid cultures were spun down at 4° C. for 10 min at 10,000 RCF, washed 10 times in cold deionized water, and resuspended in 5 mL cold deionized water. To remove vegetative cells, cultures were treated with lysozyme (final concentration 50 μg/mL) for 10 min on ice, followed by six rounds of 15 sec sonication on ice, then were washed twice with cold deionized water. Spore preparations were stored in deionized water at 4° C., and prior to use were washed once with cold deionzied water. Unless otherwise noted, spores were resuspended in 25 mM HEPES (Sigma-Aldrich, St. Louis, Mo.) pH 7.41 to produce a final concentration of 10^8 CFUs/mL. Purified spore cultures contained over 98% phase-bright spores and minimal cell debris, as verified through phase contrast microscopy.
Terbium chloride (1 mM) (Sigma-Aldrich, St. Louis, Mo.) and all germinant solutions were prepared in 25 mM HEPES pH 7.41 and added as noted in individual experiments. 90 μL TrigoCor spores were mixed with 10 μL of each germinant (100 mM, final concentration 10 mM) and incubated in a 96-well plate (Thermo Scientific, Waltham, Mass.) at 37° C. for 1, 10, 30, 60, or 120 min. Samples were prepared so that all incubations finished simultaneously and were analyzed together. For each germinant tested, two spore-germinant mixtures were loaded per incubation time. Germinants tested were D-glucose, D-fructose, KBr, KCl, L-alanine, L-asparagine, L-proline, L-valine, and the germinant combination AGFK (equimolar concentrations of L-asparagine, D-glucose, D-fructose, and KCl), or HEPES as a control. Following addition of 100 μL terbium chloride to all samples, fluorescence was measured as explained below.
At each plate reader measurement time, two 90 μL samples of spores autoclaved for 60 min mixed with 10 μL HEPES, as well as a sample containing a mixture of all germinants and HEPES, were added as additional samples in the plate and mixed with 100 μL terbium chloride. A final sample of pure deionized water was included in the plate as well, and these samples were measured alongside all other samples in the plate. Fluorescence was measured at 545 nm emission and 273 nm excitation according to Yi and Setlow (2010) using a Synergy 4 plate reader (Biotek Instruments Inc., Winooski, Vt.). […] Percent spore germination for each sample at each time point was calculated by dividing its relative fluorescence units (RFUs) by the corresponding average RFUs of the autoclaved cells, which have released all their dipicolinic acid (DPA) due to lysis (Yang and Ponce 2009) and provided in Table 1. Spore germination results were confirmed using phase contrast microscopy (data not shown).

[2] = system: TrigoCor spores; test: Terbium chloride spore germination assay at 37° C., 10 or 100 mM germinant (Example 2); type: cell-based, Bacillus subtilis var. amyloliquefaciens; settings: for Percent germination of TrigoCor spores: mean ± standard deviation; for percent germination of spores as compared to control (in words): summary of Table 2, 10 or 100 mM
Protocol: The following protocol was performed as per Example 1, with the following modification:
Terbium chloride (1 mM) (Sigma-Aldrich, St. Louis, Mo.) and all germinant solutions were prepared in 25 mM HEPES pH 7.41 and added as noted in individual experiments. 450 μL TrigoCor spores were mixed with 50 μL of each germinant (100 mM and 1 M, final concentrations 10 mM and 100 mM) and incubated at 37° C. Two samples were prepared for each germinant and germinants tested were D-glucose, L-alanine, AGFK, and an equimolar solution of glucose and alanine, or HEPES as a control. After 10, 30, 60, and 120 minutes of incubation, 100 μL was transferred from each tube to a 96-well plate. For an initial measurement of spore germination, two 100 μL samples of spores not mixed with germinants and kept at 4° C. were analyzed alongside the samples which had incubated for 10 minutes. Immediately following each sample time, 100 μL terbium chloride was added to all samples and fluorescence was measured as explained previously.
Percent spore germination for each sample at each time point was calculated by dividing its relative fluorescence units (RFUs) by the corresponding average RFUs of the autoclaved cells, which have released all their dipicolinic acid (DPA) due to lysis (Yang and Ponce 2009) and provided in Table 2. Spore germination results were confirmed using phase contrast microscopy (data not shown).

[3] = 10 mM germinant, incubation time 10 min
[4] = 10 mM germinant, incubation time 30 min
[5] = 10 mM germinant, incubation time 60 min
[6] = 10 mM germinant, incubation time 120 min
[7] = 100 mM germinant, incubation time 10 min
[8] = 100 mM germinant, incubation time 30 min
[9] = 100 mM germinant, incubation time 60 min
[10] = 100 mM germinant, incubation time 120 min

Compound | Percent germination of TrigoCor spores ([1]; incubation time 1 min) | Percent germination of TrigoCor spores ([1]; incubation time 10 min) | Percent germination of TrigoCor spores ([1]; incubation time 30 min) | Percent germination of TrigoCor spores ([1]; incubation time 60 min) | Percent germination of TrigoCor spores ([1]; incubation time 120 min) | percent germination of spores as compared to control (in words) [1] | Percent germination of TrigoCor spores [2, 3] | Percent germination of TrigoCor spores [2, 4] | Percent germination of TrigoCor spores [2, 5] | Percent germination of TrigoCor spores [2, 6] | Percent germination of TrigoCor spores [2, 7] | Percent germination of TrigoCor spores [2, 8] | Percent germination of TrigoCor spores [2, 9] | Percent germination of TrigoCor spores [2, 10] | percent germination of spores as compared to control (in words) [2]
O=C(CO)[C@@H](O)[C@H](O)[C@H](O)CO [D-fructose] | 1 ± 0% | 1 ± 0% | 1 ± 0% | 1 ± 1% | 1 ± 1% | – | – | – | – | – | – | – | – | – | –
O=C[C@H](O)[C@@H](O)[C@H](O)[C@H](O)CO [D-glucose] | 1 ± 0% | 1 ± 0% | 5 ± 0% | 10 ± 1% | 25 ± 1% | increases | 1 ± 0% | 5 ± 0% | 13 ± 1% | 28 ± 2% | 1 ± 0% | 7 ± 1% | 18 ± 2% | 34 ± 1% | increases
C[C@H](N)C(=O)O [L-alanine] | 1 ± 0% | 4 ± 0% | 20 ± 1% | 23 ± 1% | 21 ± 0% | increases | 1 ± 0% | 13 ± 1% | 41 ± 1% | 43 ± 1% | 1 ± 0% | 47 ± 1% | 86 ± 3% | 90 ± 3% | increases
NC(=O)C[C@H](N)C(=O)O [L-asparagine] | 1 ± 0% | 1 ± 0% | 1 ± 0% | 1 ± 0% | 1 ± 0% | – | – | – | – | – | – | – | – | – | –
O=C(O)[C@@H]1CCCN1 [L-proline] | 1 ± 0% | 1 ± 0% | 1 ± 0% | 1 ± 0% | 1 ± 0% | – | – | – | – | – | – | – | – | – | –
CC(C)[C@H](N)C(=O)O [L-valine] | 1 ± 0% | 1 ± 0% | 1 ± 0% | 1 ± 0% | 1 ± 0% | – | – | – | – | – | – | – | – | – | –
[Br-].[K+] [Potassium bromide] | 1 ± 0% | 1 ± 0% | 1 ± 0% | 1 ± 0% | 1 ± 0% | – | – | – | – | – | – | – | – | – | –
[Cl-].[K+] [Potassium chloride] | 1 ± 0% | 1 ± 0% | 1 ± 0% | 1 ± 0% | 1 ± 0% | – | – | – | – | – | – | – | – | – | –
